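Exposure lasted 48 hours, with cells grown in 96-well plates and compounds tested at five concentrations. Abbreviation: GI50, concentration required for 50% inhibition of growth.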 Calls of active or inactive are those of the source. Rule as the data show it: active = GI50 up to about 1.1 µM and inactive = higher.
Columns and labels:
Test in all cases: NCI anticancer screen, dose series, 48 h
ACHN = tested on: ACHN
RPMI-8226 = tested on: RPMI-8226
HOP-62 = tested on: HOP-62
SF-295 = tested on: SF-295
TK-10 = tested on: TK-10
SF-268 = tested on: SF-268
SN12C = tested on: SN12C
SW-620 = tested on: SW-620
CAKI-1 = tested on: CAKI-1
A549 = tested on: A549
SNB-19 = tested on: SNB-19
HL-60 = tested on: HL-60
UACC-62 = tested on: UACC-62
SK-MEL-5 = tested on: SK-MEL-5
OVCAR-8 = tested on: OVCAR-8
NCI/ADR-RES = tested on: NCI/ADR-RES
PC-3 = tested on: PC-3
DU-145 = tested on: DU-145

Measured: GI50

CCCn1c(SCC)c2ccccc2c1-c1nc(F)nc(F)n1
inactive: ACHN > 100 µM | RPMI-8226 > 100 µM | HOP-62 > 100 µM | SF-295 > 100 µM | TK-10 > 100 µM | SF-268 > 100 µM | SN12C > 100 µM | SW-620 > 100 µM | CAKI-1 > 100 µM | A549 > 100 µM | SNB-19 > 100 µM | HL-60 > 100 µM

N#CCc1c(-c2ccccc2)n(S(=O)(=O)c2ccccc2)c2ccccc12
inactive: ACHN > 100 µM | RPMI-8226 31.2 µM | UACC-62 94.2 µM | SK-MEL-5 > 100 µM | HOP-62 36.1 µM | SF-295 25.1 µM | TK-10 > 100 µM | SF-268 > 100 µM | SW-620 > 100 µM | CAKI-1 > 100 µM | A549 > 100 µM | SNB-19 63.5 µM | HL-60 > 100 µM | OVCAR-8 > 100 µM

O=S(=O)(O)c1ccccc1/N=N\c1ccc(/N=N/c2c(O)ccc3ccccc23)c(S(=O)(=O)O)c1
inactive: ACHN > 100 µM | NCI/ADR-RES > 100 µM | RPMI-8226 > 100 µM | UACC-62 > 100 µM | SK-MEL-5 > 100 µM | HOP-62 > 100 µM | PC-3 > 100 µM | SF-295 > 100 µM | TK-10 > 100 µM | SF-268 > 100 µM | DU-145 > 100 µM | SN12C > 100 µM | SW-620 > 100 µM | CAKI-1 > 100 µM | A549 > 100 µM | SNB-19 > 100 µM | OVCAR-8 > 100 µM

NNC(=O)/C(=C/c1cccc([N+](=O)[O-])c1)NC(=O)c1ccccc1
inactive: ACHN > 100 µM | RPMI-8226 > 100 µM | SK-MEL-5 > 100 µM | HOP-62 > 100 µM | SF-295 > 100 µM | TK-10 > 100 µM | SF-268 > 100 µM | SN12C > 100 µM | SW-620 > 100 µM | CAKI-1 > 100 µM | A549 > 100 µM | SNB-19 > 100 µM | HL-60 > 100 µM | OVCAR-8 > 100 µM

NNC(=S)N/N=C/C(Cl)=C(\Cl)C(=O)O
inactive: ACHN > 100 µM | RPMI-8226 > 100 µM | UACC-62 > 100 µM | SK-MEL-5 > 100 µM | SF-295 > 100 µM | TK-10 > 100 µM | SF-268 > 100 µM | SN12C > 100 µM | SW-620 > 100 µM | CAKI-1 > 100 µM | A549 > 100 µM | SNB-19 > 100 µM | HL-60 > 100 µM | OVCAR-8 > 100 µM

COC1C=CC(C(=O)[N+]2=Cc3[nH]c4ccccc4c3CC2)O1 (configuration not stated)
inactive: ACHN 97.9 µM | RPMI-8226 71.1 µM | UACC-62 > 100 µM | SK-MEL-5 > 100 µM | HOP-62 > 100 µM | SF-295 > 100 µM | TK-10 > 100 µM | SF-268 > 100 µM | SN12C > 100 µM | SW-620 > 100 µM | CAKI-1 > 100 µM | A549 > 100 µM | SNB-19 > 100 µM | HL-60 32.3 µM | OVCAR-8 > 100 µM

N/C(=N\O)N/N=C/c1cccc(F)c1
inactive: ACHN 27.7 µM | RPMI-8226 39 µM | UACC-62 16.8 µM | SK-MEL-5 14.8 µM | HOP-62 26.9 µM | SF-295 37.8 µM | TK-10 66.5 µM | SF-268 21.6 µM | SN12C 44.2 µM | SW-620 75.2 µM | CAKI-1 27.7 µM | A549 31.7 µM | SNB-19 > 100 µM | HL-60 25.5 µM | OVCAR-8 33 µM

Cc1cn(C2C=CC(=O)C(C)O2)c(=O)[nH]c1=O (configuration not stated)
inactive: ACHN 17.5 µM | RPMI-8226 20.5 µM | UACC-62 15.7 µM | SK-MEL-5 14.7 µM | HOP-62 20.6 µM | SF-295 17.5 µM | TK-10 15.1 µM | SF-268 18.2 µM | SN12C 15.9 µM | SW-620 15.1 µM | CAKI-1 16.7 µM | A549 39 µM | SNB-19 21 µM | HL-60 14.7 µM | OVCAR-8 18.6 µM

COC1OC(CBr)C(OC(=O)c2ccccc2)C(OS(=O)(=O)c2ccc(C)cc2)C1Br (configuration not stated)
inactive: ACHN > 100 µM | RPMI-8226 > 100 µM | UACC-62 > 10 µM | HOP-62 > 100 µM | SF-295 > 100 µM | TK-10 > 100 µM | SF-268 > 100 µM | SN12C > 100 µM | SW-620 > 100 µM | CAKI-1 > 100 µM | A549 > 100 µM | SNB-19 > 100 µM | HL-60 > 100 µM | OVCAR-8 > 100 µM

CCOC(=O)C1=C(C)N2CCOC2(C)C(C(=O)OC)C1c1cccc(Cl)c1 (configuration not stated)
inactive: ACHN > 100 µM | RPMI-8226 > 100 µM | UACC-62 88.7 µM | SK-MEL-5 > 100 µM | HOP-62 > 100 µM | SF-295 > 100 µM | TK-10 > 100 µM | SF-268 > 100 µM | SN12C > 100 µM | SW-620 > 100 µM | CAKI-1 > 100 µM | A549 > 100 µM | SNB-19 > 100 µM | HL-60 56.4 µM | OVCAR-8 > 100 µM

O=C1CC(c2c(-c3ccccc3)[nH]c3ccccc23)C(=O)N1c1ccccc1 (configuration not stated)
inactive: ACHN 40.5 µM | RPMI-8226 37.6 µM | UACC-62 54.2 µM | SK-MEL-5 56.8 µM | HOP-62 25.6 µM | SF-295 13.5 µM | TK-10 > 100 µM | SW-620 > 100 µM | CAKI-1 59.4 µM | A549 41.8 µM | HL-60 44.6 µM | OVCAR-8 > 100 µM

CCOC(=O)/C(C#N)=C(O)/C(=C/c1ccccc1Cl)NC(=O)c1ccccc1
inactive: ACHN > 100 µM | RPMI-8226 26.6 µM | UACC-62 > 100 µM | SK-MEL-5 > 100 µM | HOP-62 > 100 µM | SF-295 > 100 µM | TK-10 > 100 µM | SF-268 > 100 µM | SN12C > 100 µM | SW-620 18.8 µM | CAKI-1 > 100 µM | A549 > 100 µM | SNB-19 > 100 µM | HL-60 > 100 µM | OVCAR-8 > 100 µM

CN(C)CCC(=O)c1ccccc1
inactive: ACHN > 57.5 µM | RPMI-8226 9.04 µM | UACC-62 > 56.2 µM | SK-MEL-5 > 43 µM | HOP-62 > 100 µM | SF-295 > 100 µM | TK-10 > 56.5 µM | SF-268 > 58.5 µM | SN12C > 58.6 µM | SW-620 16.8 µM | CAKI-1 18.9 µM | A549 > 65.2 µM | SNB-19 > 100 µM | HL-60 11.3 µM | OVCAR-8 36.6 µM

Nc1nc(O)c2nc(N)n(Cc3ccccc3)c2n1
inactive: ACHN > 100 µM | RPMI-8226 > 100 µM | UACC-62 > 100 µM | SK-MEL-5 > 100 µM | HOP-62 > 100 µM | SF-295 > 100 µM | TK-10 > 100 µM | SF-268 > 100 µM | SN12C > 100 µM | SW-620 > 100 µM | CAKI-1 > 100 µM | A549 > 100 µM | SNB-19 > 100 µM | HL-60 > 100 µM | OVCAR-8 > 100 µM

— ChEMBL document CHEMBL1201862, “PubChem BioAssay data set” (2004)
